How the values were obtained:
Type in all cases: cell-based, human
[1] = test system: Raji B lymphoblastoid cell; assay: MTT anti-proliferative assay, Raji; settings: for IC50: MTT, 48 h, read-out: IC50 Raji
Method: (§1) The anti-proliferation activities of the synthesized analogs were assessed by an in vitro MTT assay conducted on thirteen human cell lines. Their cytotoxic activities were evaluated by measuring the inhibition of net cell growth. […]
(§2) 1.6. Cell lines and cell culture
(§3) MTT was purchased from Sigma-Aldrich Co. (St. Louis, MO, USA). The PI and Annexin V-FITC apoptosis detection kit were purchased from Invitrogen (Eugene, OR, USA). All human cell lines were used in this study. […]
(§4) cell, MCF-7 breast cancer cell, MCF-10A normal breast cell, Raji B lymphoblastoid cell and diffuse large B-cell lymphoma SU-DHL-10 cell were initially purchased from American Type Culture Collection (ATCC, Manassas, Virginia). media, DMEM, and FBS were provided from Gibco Company.
(§5) 1.7. Cell growth inhibition assay (MTT assay)
(§6) The experiment was carried out according to the method of reference. Briefly, cells were plated in 96-well plates at a den- […]
(§7) the anti-proliferative activities were determined by MTT assay. […]
(§8) (Becton-Dickinson, Franklin Lakes, NJ). […]

[2] = test system: HeLa cervical cancer cell; assay: MTT anti-proliferative assay, HeLa; settings: MTT, 48 h
Method: as §1, §2, §3, §4, §5, §6, §7, §8

[3] = test system: MGC-803 late stage differentiation gastric cancer cell; assay: MTT anti-proliferative assay, MGC-803; settings: for IC50: MTT, 48 h
Method: as §1, §2, §3, §4, §5, §6, §7, §8

MCF-7 breast cancer cell = assay: MTT anti-proliferative assay, MCF-7; settings: for IC50: MTT, 48 h
Method: as §1, §2, §3, §4, §5, §6, §7, §8

HepG2 hepatoma cell = assay: MTT anti-proliferative assay, HepG2; settings: for IC50: MTT, 48 h, read-out: IC50 HepG-2
Method: as §1, §2, §3, §4, §5, §6, §7, §8

L-02 normal liver cell = assay: MTT assay, L-02 normal cells; settings: 48 h
Method: as §1, §2, §3, §4, §5, §6, §7, §8

[4] = test system: BEL-7402 liver cancer cell; assay: MTT anti-proliferative assay, BEL-7402; settings: for IC50: MTT, 48 h
Method: as §1, §2, §3, §4, §5, §6, §7, §8

[5] = test system: SGC-7901 early differentiation gastric cancer cell; assay: MTT anti-proliferative assay, SGC-7901; settings: for IC50: MTT, 48 h
Method: as §1, §2, §3, §4, §5, §6, §7, §8

[6] = test system: HCT116 colectal cancer cell; assay: MTT anti-proliferative assay, HCT116; settings: for IC50: MTT, 48 h, read-out: IC50 HCT-116
Method: as §1, §2, §3, §4, §5, §6, §7, §8

[7] = test system: diffuse large B-cell lymphoma SU-DHL-10 cell; assay: MTT anti-proliferative assay, SU-DHL-10; settings: for IC50: MTT, 48 h, read-out: IC50 SU-DHL-10
Method: as §1, §2, §3, §4, §5, §6, §7, §8

A549 lung cancer cell = assay: MTT anti-proliferative assay, A549; settings: for IC50: MTT, 48 h
Method: as §1, §2, §3, §4, §5, §6, §7, §8

AGS gastric cancer cell = assay: MTT anti-proliferative assay, AGS; settings: for IC50: MTT, 48 h
Method: as §1, §2, §3, §4, §5, §6, §7, §8

[8] = test system: MCF-10A normal breast cell; assay: MTT assay, MCF-10A normal cells; settings: 48 h
Method: as §1, §2, §3, §4, §5, §6, §7, §8

IC50 [1] [µM] | IC50 [2] [µM] | IC50 [3] [µM] | IC50 (MCF-7 breast cancer cell) [µM] | IC50 (HepG2 hepatoma cell) [µM] | IC50 [4] [µM] | IC50 [5] [µM] | IC50 [6] [µM] | IC50 [7] [µM] | IC50 (A549 lung cancer cell) [µM] | IC50 (AGS gastric cancer cell) [µM] | SMILES | SI (selectivity index), IC50 (L-02)/IC50 (Raji) [1] | SI (selectivity index), IC50 (L-02)/IC50 (MGC-803) [3] | SI (selectivity index), IC50 (L-02)/IC50 (HepG-2) (HepG2 hepatoma cell) | IC50 (L-02 normal liver cell) [µM] | SI (selectivity index), IC50 (L-02)/IC50 (BEL-7402) [4] | SI (selectivity index), IC50 (L-02)/IC50 (HCT-116) [6] | SI (selectivity index), IC50 (L-02)/IC50 (AGS) (AGS gastric cancer cell) | IC50 [8] [µM] | SI (selectivity index), IC50 (L-02)/IC50 (SGC-7901) [5] | other results
23.7 ± 2.1 | > 100 | 10.8 ± 2.9 | > 100 | 23.5 ± 4.3 | 13 ± 1.1 | 46 ± 4.9 | 12.3 ± 1.6 | 53.6 ± 7.5 | > 100 | 23.9 ± 2.7 | N#C/C(=C\c1ccc(N2CCOCC2)cc1)c1cccc(OC(F)(F)F)c1 [Compound 1b2i] | > 1.1 | > 2.6 | > 1.2 | 28.5 ± 0.8 | > 2.1 | > 2.3 | > 1.1 | 79.6 ± 5.7 | – | –
> 100 | > 100 | > 100 | > 100 | > 100 | > 100 | 72.1 ± 4.5 | > 100 | > 100 | > 100 | > 100 | COc1ccc(/C=C(\C#N)c2cccc(OC(F)(F)F)c2)cc1 [Compound 1b2j] | – | – | – | > 100 | – | – | – | > 100 | > 1.3 | –
> 100 | > 100 | > 100 | > 100 | > 100 | > 100 | > 100 | > 100 | > 100 | > 100 | > 100 | CCCOc1ccc(/C=C(\C#N)c2cccc(OC(F)(F)F)c2)cc1 [Compound 1b2k] | – | – | – | > 100 | – | – | – | > 100 | – | –
56.6 ± 5.8 | 38.8 ± 3.5 | 20.7 ± 1.5 | 25.5 ± 0.4 | 21.5 ± 7.6 | > 100 | 20.9 ± 5.1 | 19.3 ± 0.1 | 59.7 ± 0.8 | 32.6 ± 1.1 | 15.4 ± 0.5 | N#C/C(=C\c1ccccn1)c1cccc(OC(F)(F)F)c1 [Compound 1b3a] | – | – | – | 35.9 ± 1.6 | > 5.2 | – | – | 22.7 ± 3.5 | – | –
> 100 | > 100 | > 100 | > 100 | > 100 | > 100 | > 100 | > 100 | > 100 | > 100 | > 100 | N#C/C(=C\c1ccccc1)c1ccccc1OC(F)(F)F [Compound 1c2a] | – | – | – | > 100 | – | – | – | > 100 | – | –
> 100 | > 100 | 29 ± 8.3 | > 100 | 70.5 ± 25.4 | > 100 | > 100 | > 100 | > 100 | > 100 | 31.4 ± 8.3 | N#C/C(=C\c1ccc(Cl)cc1)c1ccccc1OC(F)(F)F [Compound 1c2b] | – | > 3.4 | > 1.4 | > 100 | – | – | > 3.1 | > 100 | – | –
42.4 ± 1.7 | > 100 | 19.6 ± 6.7 | > 100 | 27.9 ± 2.4 | > 100 | > 100 | 17.2 ± 5.2 | > 100 | > 100 | 16.7 ± 2.3 | N#C/C(=C\c1ccc(Br)cc1)c1ccccc1OC(F)(F)F [Compound 1c2c] | – | > 2.1 | > 1.5 | 42.2 ± 11.5 | – | > 2.4 | > 2.5 | > 100 | – | –
60.5 ± 19.1 | > 100 | 13.1 ± 3.6 | > 100 | 26.7 ± 10.1 | 17.4 ± 4.2 | 50.1 ± 5.9 | > 100 | > 100 | 50.7 ± 7.4 | 6.3 ± 0.4 | Cc1ccc(/C=C(\C#N)c2ccccc2OC(F)(F)F)cc1 [Compound 1c2d] | > 1.6 | > 7.6 | > 3.7 | > 100 | > 5.7 | – | > 15.6 | > 100 | > 1.9 | SI (selectivity index), IC50 (L-02)/IC50 (A549) (A549 lung cancer cell): > 1.9
41.3 ± 5.5 | 75.8 ± 12.4 | 2.5 ± 1.1 | > 100 | 24.9 ± 7 | 10.8 ± 2.3 | 7.8 ± 0.8 | 8.4 ± 2.4 | > 100 | > 100 | 7.6 ± 0.6 | COc1ccc(/C=C(\C#N)c2ccccc2OC(F)(F)F)cc1 [Compound 1c2e] | – | > 14.2 | > 1.4 | 36.1 ± 4.8 | > 3.3 | > 4.2 | > 4.7 | > 100 | > 4.5 | –
7.9 ± 0.5 | > 100 | 18.8 ± 1.7 | > 100 | > 100 | > 100 | > 100 | > 100 | 19.9 ± 0.7 | > 100 | 23 ± 1 | Cc1ccc(/C(C#N)=C/c2ccc(N(C)C)cc2)cc1 [Compound 1d2a] | > 12.5 | > 5.3 | – | > 100 | – | – | > 4.3 | > 100 | – | SI (selectivity index), IC50 (L-02)/IC50 (SU-DHL-10) [7]: > 5.0
11.8 ± 0.4 | > 100 | 8.6 ± 0.04 | 52.3 ± 2.2 | > 100 | 65.4 ± 2.5 | > 100 | 3.1 ± 0.5 | 42.6 ± 11.4 | > 100 | 24.1 ± 0.2 | CCN(CC)c1ccc(/C=C(\C#N)c2ccc(C)cc2)cc1 [Compound 1d2b] | > 8.4 | > 11.5 | – | > 100 | > 1.5 | > 32.0 | > 4.1 | > 100 | – | SI (selectivity index), IC50 (MCF-10A)/IC50 (MCF-7) (MCF-7 breast cancer cell): > 1.9; SI (selectivity index), IC50 (L-02)/IC50 (SU-DHL-10) [7]: > 2.3
11.6 ± 4.9 | > 100 | 8.3 ± 1.2 | 36.9 ± 3.6 | > 100 | 46.8 ± 5.1 | 38.2 ± 9 | 7.2 ± 0.6 | 27.2 ± 5.3 | > 100 | 18.4 ± 1.9 | COc1ccc(/C(C#N)=C/c2cc(OC)c(OC)c(OC)c2)cc1 [Compound 1e2a] | > 4.0 | > 5.7 | – | 47.5 ± 12.4 | > 1.0 | > 6.5 | > 2.8 | 28.1 ± 3.6 | > 1.2 | SI (selectivity index), IC50 (L-02)/IC50 (SU-DHL-10) [7]: > 1.7
12.7 ± 3.8 | > 100 | 15.1 ± 1.2 | > 100 | > 100 | > 100 | 22.6 | > 100 | > 100 | > 100 | > 100 | COc1ccc(/C(C#N)=C/c2ccc(N(C)C)cc2)cc1 [Compound 1e2b] | > 7.8 | > 6.6 | – | > 100 | – | – | – | > 100 | > 4.4 | –
19.3 ± 0.5 | > 100 | > 100 | > 100 | > 100 | > 100 | > 100 | > 100 | 62.3 ± 9.6 | > 100 | > 100 | CCN(CC)c1ccc(/C=C(\C#N)c2ccc(OC)cc2)cc1 [Compound 1e2c] | > 5.1 | – | – | > 100 | – | – | – | > 100 | – | SI (selectivity index), IC50 (L-02)/IC50 (SU-DHL-10) [7]: > 1.6

SMILES | IC50 [1] [µM] | IC50 [2] [µM] | IC50 [3] [µM] | IC50 (MCF-7 breast cancer cell) [µM] | IC50 (HepG2 hepatoma cell) [µM] | IC50 [4] [µM] | IC50 [5] [µM] | IC50 [6] [µM] | IC50 [7] [µM] | IC50 (A549 lung cancer cell) [µM] | IC50 (AGS gastric cancer cell) [µM] | SI (selectivity index), IC50 (L-02)/IC50 (Raji) [1] | SI (selectivity index), IC50 (L-02)/IC50 (MGC-803) [3] | SI (selectivity index), IC50 (L-02)/IC50 (HepG-2) (HepG2 hepatoma cell) | IC50 (L-02 normal liver cell) [µM] | SI (selectivity index), IC50 (L-02)/IC50 (BEL-7402) [4] | SI (selectivity index), IC50 (L-02)/IC50 (HCT-116) [6] | SI (selectivity index), IC50 (L-02)/IC50 (AGS) (AGS gastric cancer cell) | IC50 [8] [µM] | SI (selectivity index), IC50 (L-02)/IC50 (SGC-7901) [5] | other results
CN(C)c1ccc(/C=C(\C#N)c2ccc(C(F)(F)F)cc2)cc1 [Compound 1f2a] | > 100 | > 100 | > 100 | > 100 | > 100 | > 100 | > 100 | > 100 | > 100 | > 100 | > 100 | – | – | – | > 100 | – | – | – | > 100 | – | –

Source: PMC11071649, “Synthesis and Selective Anticancer Activity Evaluation of 2-phenylacrylonitrile Derivatives as Tubulin Inhibitors” (Current Medicinal Chemistry, 2024)
